Tested on: ABCC1 transporter
Test: Activation of the ABCC1 transporter

CCSc1ccc2c(c1)N(CCCN1CCN(C)CC1)c1ccccc1S2 [thiethylperazine, 2-(ethylthio)-10-[3-(4-methylpiperazin-1-yl)propyl]-10H-phenothiazine]
activation of the ABCC1 transporter, in words: particularly efficient activator of the ABCC1 transporter
